Measurements reported in the NIST ThermoML archive (doi:10.1021/je200595b).

Assay: excess molar enthalpy (molar enthalpy of mixing); xn = mol fraction of the nth substance listed
Conditions: 298.15 K, 100 kPa, Liquid, Flow calorimetry

CC(=O)OC(C)=O [ethanoic anhydride] + CC(=O)O
Conditions	excess molar enthalpy [kcal/mol]
x1 = 0.05	0.0108
x1 = 0.1	0.0213
x1 = 0.15	0.032
x1 = 0.2	0.0423
x1 = 0.25	0.0519
x1 = 0.3	0.0607
x1 = 0.35	0.0688
x1 = 0.4	0.0758
x1 = 0.45	0.0813
x1 = 0.5	0.0851
x1 = 0.55	0.0875
x1 = 0.6	0.088
x1 = 0.65	0.0863
x1 = 0.7	0.0822
x1 = 0.75	0.0758
x1 = 0.8	0.0669
x1 = 0.85	0.055
x1 = 0.9	0.0402
x1 = 0.95	0.022

CC(=O)OC(C)=O [ethanoic anhydride] + CCO
Conditions	excess molar enthalpy [kcal/mol]
x2 = 0.05	0.0822
x2 = 0.1	0.154
x2 = 0.15	0.214
x2 = 0.2	0.266
x2 = 0.25	0.306
x2 = 0.3	0.339
x2 = 0.35	0.364
x2 = 0.4	0.382
x2 = 0.45	0.396
x2 = 0.5	0.405
x2 = 0.6	0.383
x2 = 0.65	0.363
x2 = 0.7	0.337
x2 = 0.75	0.306
x2 = 0.8	0.268
x2 = 0.85	0.221
x2 = 0.9	0.164
x2 = 0.95	0.0939

CCOC(C)=O [ethyl acetate] + CCO
Conditions	excess molar enthalpy [kcal/mol]
x2 = 0.05	0.0712
x2 = 0.1	0.135
x2 = 0.15	0.185
x2 = 0.2	0.222
x2 = 0.25	0.25
x2 = 0.3	0.27
x2 = 0.35	0.283
x2 = 0.4	0.291
x2 = 0.45	0.293
x2 = 0.5	0.289
x2 = 0.55	0.284
x2 = 0.6	0.276
x2 = 0.65	0.262
x2 = 0.7	0.234
x2 = 0.75	0.205
x2 = 0.8	0.174
x2 = 0.85	0.138
x2 = 0.9	0.1
x2 = 0.95	0.0554
